Laboratory results reported in ChEMBL document CHEMBL3046287, “Azoxystrobin resistance of French Mycosphaerella graminicola strains assessed by four in vitro bioassays and by screening of G143A substitution” (Crop Prot, 2010).
≈ marks a conversion by molar mass, not a printed value.

Key:
Type in all cases: functional, organism-based
Zymoseptoria tritici [1] = test: Antifungal activity against azoxystrobin-sensitive Zymoseptoria tritici T0460 carrying cytochrome-b G143 allele assessed as fungal growth inhibition after 6 days at 20 degC by microplate without alamar blue assay; settings: T0460, 144 h
Zymoseptoria tritici [2] = test: Antifungal activity against azoxystrobin-resistant Zymoseptoria tritici T0242 carrying cytochrome-b A143 allele assessed as inhibition of spore germination after 2 days at 18 degC by spotting on PDA medium assay; settings: T0242, 48 h
Zymoseptoria tritici [3] = test: Antifungal activity against azoxystrobin-resistant Zymoseptoria tritici T0290 carrying cytochrome-b A143 allele assessed as fungal growth inhibition after 6 days at 20 degC by microplate without alamar blue assay; settings: T0290, 144 h
Zymoseptoria tritici [4] = test: Antifungal activity against azoxystrobin-sensitive Zymoseptoria tritici T021 carrying cytochrome-b G143 allele assessed as fungal colony perpendicular diameter changes after 10 days at 18 degC by spotting on PDA medium assay; settings: T021, 240 h
Zymoseptoria tritici [5] = test: Antifungal activity against azoxystrobin-sensitive Zymoseptoria tritici T0278 carrying cytochrome-b G143 allele assessed as inhibition of spore germination after 2 days at 18 degC by spotting on PDA medium assay; settings: T0278, 48 h
Zymoseptoria tritici [6] = test: Antifungal activity against azoxystrobin-sensitive Zymoseptoria tritici T0470 carrying cytochrome-b G143 allele assessed as inhibition of spore germination after 2 days at 18 degC by spotting on PDA medium assay; settings: T0470, 48 h
Zymoseptoria tritici [7] = test: Antifungal activity against azoxystrobin-sensitive Zymoseptoria tritici T0468 carrying cytochrome-b G143 allele assessed as fungal colony perpendicular diameter changes after 10 days at 18 degC by spotting on PDA medium assay; settings: T0468, 240 h
Zymoseptoria tritici [8] = test: Antifungal activity against azoxystrobin-sensitive Zymoseptoria tritici T0466 carrying cytochrome-b G143 allele assessed as fungal colony perpendicular diameter changes after 10 days at 18 degC by spotting on PDA medium assay; settings: T0466, 240 h
Zymoseptoria tritici [9] = test: Antifungal activity against azoxystrobin-sensitive Zymoseptoria tritici T0365 carrying cytochrome-b G143 allele assessed as fungal growth inhibition after 6 days at 20 degC by microplate without alamar blue assay; settings: T0365, 144 h
Zymoseptoria tritici [10] = test: Antifungal activity against azoxystrobin-sensitive Zymoseptoria tritici T0403 carrying cytochrome-b G143 allele assessed as fungal growth inhibition after 6 days at 20 degC by microplate without alamar blue assay; settings: T0403, 144 h
Zymoseptoria tritici [11] = test: Antifungal activity against azoxystrobin-resistant Zymoseptoria tritici T0293 carrying cytochrome-b A143 allele assessed as fungal colony perpendicular diameter changes after 10 days at 18 degC by spotting on PDA medium assay; settings: T0293, 240 h
Zymoseptoria tritici [12] = test: Antifungal activity against azoxystrobin-resistant Zymoseptoria tritici T0451 carrying cytochrome-b A143 allele assessed as fungal colony perpendicular diameter changes after 10 days at 18 degC by spotting on PDA medium assay; settings: T0451, 240 h
Zymoseptoria tritici [13] = test: Antifungal activity against azoxystrobin-sensitive Zymoseptoria tritici T0473 carrying cytochrome-b G143 allele assessed as fungal colony perpendicular diameter changes after 10 days at 18 degC by spotting on PDA medium assay; settings: T0473, 240 h
Zymoseptoria tritici [14] = test: Antifungal activity against azoxystrobin-resistant Zymoseptoria tritici T0262 carrying cytochrome-b A143 allele assessed as fungal colony perpendicular diameter changes after 10 days at 18 degC by spotting on PDA medium assay; settings: T0262, 240 h
Zymoseptoria tritici [15] = test: Antifungal activity against azoxystrobin-sensitive Zymoseptoria tritici T021 carrying cytochrome-b G143 allele assessed as inhibition of spore germination after 2 days at 18 degC by spotting on PDA medium assay; settings: T021, 48 h
Zymoseptoria tritici [16] = test: Antifungal activity against azoxystrobin-sensitive Zymoseptoria tritici T0471 carrying cytochrome-b G143 allele assessed as fungal colony perpendicular diameter changes after 10 days at 18 degC by spotting on PDA medium assay; settings: T0471, 240 h
Zymoseptoria tritici [17] = test: Antifungal activity against azoxystrobin-sensitive Zymoseptoria tritici T0471 carrying cytochrome-b G143 allele assessed as inhibition of spore germination after 2 days at 18 degC by spotting on PDA medium assay; settings: T0471, 48 h
Zymoseptoria tritici [18] = test: Antifungal activity against azoxystrobin-sensitive Zymoseptoria tritici T0213 carrying cytochrome-b G143 allele assessed as fungal growth inhibition after 6 days at 20 degC by microplate without alamar blue assay; settings: T0213, 144 h
Zymoseptoria tritici [19] = test: Antifungal activity against azoxystrobin-sensitive Zymoseptoria tritici T0210 carrying cytochrome-b G143 allele assessed as inhibition of spore germination after 2 days at 18 degC by spotting on PDA medium assay; settings: T0210, 48 h
Zymoseptoria tritici [20] = test: Antifungal activity against azoxystrobin-sensitive Zymoseptoria tritici IPO94269 carrying cytochrome-b G143 allele assessed as fungal growth inhibition after 6 days at 20 degC by microplate without alamar blue assay; settings: IPO94269, 144 h
Zymoseptoria tritici [21] = test: Antifungal activity against azoxystrobin-sensitive Zymoseptoria tritici T0473 carrying cytochrome-b G143 allele assessed as fungal growth inhibition after 6 days at 20 degC by microplate without alamar blue assay; settings: T0473, 144 h
Zymoseptoria tritici [22] = test: Antifungal activity against azoxystrobin-sensitive Zymoseptoria tritici T0209 carrying cytochrome-b G143 allele assessed as inhibition of spore germination after 2 days at 18 degC by spotting on PDA medium assay; settings: T0209, 48 h
Zymoseptoria tritici [23] = test: Antifungal activity against azoxystrobin-sensitive Zymoseptoria tritici T0464 carrying cytochrome-b G143 allele assessed as fungal colony perpendicular diameter changes after 10 days at 18 degC by spotting on PDA medium assay; settings: T0464, 240 h
Zymoseptoria tritici [24] = test: Antifungal activity against azoxystrobin-resistant Zymoseptoria tritici T0414 carrying cytochrome-b A143 allele assessed as inhibition of spore germination after 2 days at 18 degC by spotting on PDA medium assay; settings: T0414, 48 h
Zymoseptoria tritici [25] = test: Antifungal activity against azoxystrobin-resistant Zymoseptoria tritici T049 carrying cytochrome-b A143 allele assessed as fungal growth inhibition after 6 days at 20 degC by microplate without alamar blue assay; settings: T049, 144 h
Zymoseptoria tritici [26] = test: Antifungal activity against azoxystrobin-resistant Zymoseptoria tritici T0485 carrying cytochrome-b A143 allele assessed as fungal colony perpendicular diameter changes after 10 days at 18 degC by spotting on PDA medium assay; settings: T0485, 240 h
Zymoseptoria tritici [27] = test: Antifungal activity against azoxystrobin-resistant Zymoseptoria tritici T055 carrying cytochrome-b A143 allele assessed as fungal colony perpendicular diameter changes after 10 days at 18 degC by spotting on PDA medium assay; settings: T055, 240 h
Zymoseptoria tritici [28] = test: Antifungal activity against azoxystrobin-sensitive Zymoseptoria tritici T0403 carrying cytochrome-b G143 allele assessed as fungal colony perpendicular diameter changes after 10 days at 18 degC by spotting on PDA medium assay; settings: T0403, 240 h
Zymoseptoria tritici [29] = test: Antifungal activity against azoxystrobin-sensitive Zymoseptoria tritici T0460 carrying cytochrome-b G143 allele assessed as inhibition of spore germination after 2 days at 18 degC by spotting on PDA medium assay; settings: T0460, 48 h
Zymoseptoria tritici [30] = test: Antifungal activity against azoxystrobin-sensitive Zymoseptoria tritici T0471 carrying cytochrome-b G143 allele assessed as fungal growth inhibition after 6 days at 20 degC by microplate without alamar blue assay; settings: T0471, 144 h

Compound: CO/C=C(/C(=O)OC)c1ccccc1Oc1cc(Oc2ccccc2C#N)ncn1 [AZOXYSTROBIN]
- IC50 (Zymoseptoria tritici [1]): 0.03 µg/mL (≈ 0.0744 µM)
- IC50 (Zymoseptoria tritici [2]): 18.4 µg/mL (≈ 45.7 µM)
- IC50 (Zymoseptoria tritici [3]): > 100 µg/mL
- IC50 (Zymoseptoria tritici [4]): 0.11 µg/mL (≈ 0.273 µM)
- IC50 (Zymoseptoria tritici [5]): 0.94 µg/mL (≈ 2.33 µM)
- IC50 (Zymoseptoria tritici [6]): 0.02 µg/mL (≈ 0.0496 µM)
- IC50 (Zymoseptoria tritici [7]): 0.23 µg/mL (≈ 0.57 µM)
- IC50 (Zymoseptoria tritici [8]): 0.11 µg/mL (≈ 0.273 µM)
- IC50 (Zymoseptoria tritici [9]): 0.16 µg/mL (≈ 0.397 µM)
- IC50 (Zymoseptoria tritici [10]): 9.9 µg/mL (≈ 24.5 µM)
- IC50 (Zymoseptoria tritici [11]): 10.2 µg/mL (≈ 25.2 µM)
- IC50 (Zymoseptoria tritici [12]): 14.7 µg/mL (≈ 36.5 µM)
- IC50 (Zymoseptoria tritici [13]): 0.13 µg/mL (≈ 0.322 µM)
- IC50 (Zymoseptoria tritici [14]): 9.91 µg/mL (≈ 24.6 µM)
- IC50 (Zymoseptoria tritici [15]): 0.21 µg/mL (≈ 0.521 µM)
- IC50 (Zymoseptoria tritici [16]): 0.1 µg/mL (≈ 0.248 µM)
- IC50 (Zymoseptoria tritici [17]): 0.08 µg/mL (≈ 0.198 µM)
- IC50 (Zymoseptoria tritici [18]): 0.03 µg/mL (≈ 0.0744 µM)
- IC50 (Zymoseptoria tritici [19]): 0.01 µg/mL (≈ 0.0248 µM)
- IC50 (Zymoseptoria tritici [20]): 0.03 µg/mL (≈ 0.0744 µM)
- IC50 (Zymoseptoria tritici [21]): 0.01 µg/mL (≈ 0.0248 µM)
- IC50 (Zymoseptoria tritici [22]): 0.09 µg/mL (≈ 0.223 µM)
- IC50 (Zymoseptoria tritici [23]): 0.25 µg/mL (≈ 0.62 µM)
- IC50 (Zymoseptoria tritici [24]): 16.2 µg/mL (≈ 40.3 µM)
- IC50 (Zymoseptoria tritici [25]): > 100 µg/mL
- IC50 (Zymoseptoria tritici [26]): 10.6 µg/mL (≈ 26.2 µM)
- IC50 (Zymoseptoria tritici [27]): 10.2 µg/mL (≈ 25.2 µM)
- IC50 (Zymoseptoria tritici [28]): 0.12 µg/mL (≈ 0.297 µM)
- IC50 (Zymoseptoria tritici [29]): 0.13 µg/mL (≈ 0.322 µM)
- IC50 (Zymoseptoria tritici [30]): 0.05 µg/mL (≈ 0.124 µM)
